Measured values taken from PMC7588194 (Virulence, 2020).

Test system: P. aeruginosa (ATCC 27853)
Test: Radial diffusion assay
Type: cell-based
Conditions: for concentration achieving similar inhibition zones / enhancement of antimicrobial activity among derivatives D1-D7: Figure 6C
Method: To identify library fractions and purified peptides with antibacterial activity a radial diffusion assay was carried out. Bacteria were cultured in liquid THY broth (Todd-Hewitt Broth [Oxoid, CM0189B] supplemented with 0.5% yeast extract [BD, Miami, USA, 212,750]) at 37°C overnight in a 5% CO2 atmosphere, pelleted by centrifugation and washed in 10 mM sodium phosphate buffer. Following resuspension in 10 mM sodium phosphate buffer optical density was determined spectrophotometrically at 600 nm (OD600nm). Bacterial density was adjusted to seed 2 × 10^7 bacteria into a petri dish in 1% agarose dissolved in 10 mM sodium phosphate buffer. Plates were allowed to cool for 30 min at 4°C before several 2–3 mm holes were placed into the 1% agarose. Freeze-dried fractions of the BAL library pool were reconstituted in 200 µl of ddH2O with 10 µl being used for the initial screen. Alternatively, peptides adjusted to the desired concentration in 10 µl of ddH2O were filled into the agar-holes. Following incubation at 37°C in ambient air for 3 h plates were overlaid with 10 ml of a 1% agarose solution containing 3% tryptic soy broth (TSB) dissolved in 10 mM phosphate buffer. Inhibition zones in cm were determined following 16–18 h incubation time at 37°C in a 5% CO2 atmosphere.

Row | Sequence | concentration achieving similar inhibition zones [µg/mL] | enhancement of antimicrobial activity among derivatives D1-D7 | times the amount needed compared to D7 at 25 µg/ml for similar inhibition zones
1 | GVNHVKLSQIKIVKW [B2M D7] | 25 | most convincing enhancement of antimicrobial activity | –
2 | RVNHVTLSQPKIVKW [B2M 101-115] | 50 to 100 | – | 2–4
3 | GVNHVILSQIKIVKW [B2M D6] | – | most convincing enhancement of antimicrobial activity | –
